Data on 14 compounds can be found in patent publication US7151175B2, “Propenecarboxylic acid amidoxime derivatives, a process for the preparation thereof, and pharmaceutical compositions containing the same” (N-Gene Research Laboratories Inc., priority 2000, dated 2006).

Counter-ions that a name gives are not always drawn.

The target of data set [1] is T1, poly(adenosine diphosphate ribose)polymerase (PARP) (Rattus norvegicus, UniProt P27008).
T1 construct: was isolated from rat liver according to the article of Shah, G. M; from tissue; host or cells: rat liver
Put plainly: Determination of PARP inhibition, in vitro, on isolated enzyme. The settings on record: PARP isolated from rat liver; four parallel measurements; read-out: PARP I0.5 (converted). It is filed as biochemical. The procedure: The poly(adenosine diphosphate ribose)polymerase was isolated from rat liver according to the article of Shah, G. M. [Anal. Biochem., 227, 1–13 (1995)]. The PARP activity was determined in 130 μl of reaction mixture consisting of 100 mM of tris-HCl buffer, pH 8.0, 10 mM of MgCl2, 10% glycerol, 1.5 mM of DTT, 100 μg of (32P) or (3H) NAD+, 10 μg of activated DNA, 10 μg of histone. [Tris-HCl is tris(hydroxymethyl)aminomethane hydrochloride.] After 10 minutes of incubation time, the reaction was stopped with 8% perchloric acid, and the protein was separated through centrifugation (10 minutes, 10.000×g). The precipitate was washed with 8% perchloric acid three times, and the radioactivity bound to the protein was measured with a scintillation counter.

The next data set has as its system conscious rabbits. The experiment in a line: Hyperinsulinaemic euglycaemic clamp studies (insulin sensitivity). The format is in vivo, rabbit. The procedure:
It was investigated whether treatment with the compounds of the invention effected insulin sensitivity of normal and hypercholesterolaemic conscious rabbits. Adult male white New Zealand rabbits weighing 3–3.5 kg, housed in an animal room (12-hour light/dark periods a day, temperature of 22–25° C., humidity of 50–70%), fed commercial laboratory chow and tap water ad libitum were used throughout. The experimental period commenced after a two-week adaptation period. The rabbits were randomized into two main groups. Half of the animals were continued to feed normal rabbit chow, whereas the second group animals were fed chow enriched with 1.5% cholesterol over a period of eight week. Each main group was divided into four treatment groups: • untreated group, • group treated with a compound of the invention, 10 mg/kg i.v. dose twice a day over 4 days, • group treated with 7-nitroindazole as NOS inhibitor: administration of 5 mg/kg of 7-nitroindazole over 5 min. preceded insulin administration with a 5-min inter-infusion interval, • group treated with both 7-nitroindazole and the compound of the invention as described.
The animals were anaesthetized and polyethylene catheters were inserted into two major branches of the right jugular vein and the left carotid artery. The catheters were exteriorized through the back of the neck and filled with physiological saline containing heparin. […]

The next data set deals with male SPRD rats. The experiment in a line: Heart ischemic failure and reperfusion arrhythmia (LAD occlusion/reperfusion). The format is in vivo, rat. The conditions noted are these: 5 min LAD occlusion, 10 min reperfusion. As to the method: Experiments were carried out in male SPRD rats (acceptable body weight range: 300–350 g). The animals were anesthetized by the administration of pentobarbital [5-ethyl-5-(1-methylbutyl)-2,4,6-(1H,3H,5H)-pyrimidintrione] (60 mg/kg intraperitoneally), and remained breathing spontaneously. The animals were ventilated with a respirator (manufactured by Kutesz, Hungarian Academy of Sciences) by using a trachea cannule inserted after tracheotomy. The standard lead of the ECG II was monitored. The right femoral artery was catheterized and connected to a pressure transducer (BPR-01, Experimetria, Hungary) and a preamplifier. The pulsotachometer (HG-M, Experimetria, Hungary) was started by the pulsating signal of arterial blood pressure. The external jugular vein was cannulated for drug administration. After thoracotomy, a silk (braided, coated 4-0) was placed under the left anterior coronary (LAD) artery. After a few minutes' stabilization period, a 5 min occlusion of LAD artery was applied followed by a 10 min reperfusion period. ECG was recorded in the normal state at the start and in the above periods. From the data of ECG, the span of time of ventricular tachycardia and fibrillation was determined in sec. In addition, the survival ratios in the treated animal groups were recorded.

A further data set has as its system male NMRI mice. The experiment in a line: Hepatotoxicity induced by acetaminophene (paracetamol). The format is in vivo, mouse. The settings on record: dose of 50 mg/kg. As to the method: It was examined whether the liver damage induced with paracetamol can be prevented by the novel compounds of the formula I. The symptom of liver damage was characterized by an increase of the GOT and […] enzyme levels induced with paracetamol. The experiments were carried out on male NMRI mice of 30–40 g body weight. The animals were pretreated with the compounds of the formula I, perorally, for 7 days. On day 8, the mice were subjected to starvation for 12 hours, then a 500 mg/kg p.o. dose of paracetamol and a given dose of a compound of the formula I were administered. After 16 hours, the animals were bled to death and the activity of the GOT and GPT enzymes was measured in the serum. The results were analyzed by the non-parametric test of Mann and Whitney. As to the results, the average and the standard deviation are given wherein p<0.05 was considered as significant.

A further data set concerns C57BI mice. The experiment in a line: Experimental model of Parkinson's disease (MPTP). It is filed as in vivo, mouse. The conditions noted are these: four times 20 mg/kg MPTP intraperitoneally. From the text:
Parkinson's disease (PD) is a common disabling idiopathic neurodegenerative disorder characterized by tremor, bradykinesia, rigidity and balance difficulties. These motor abnormalities are caused by the depletion of brain dopamine that results from the loss of dopaminerg neurons in the substantia nigra pars compacta. The analysis of the action of 1-methyl-4-phenyl-1,2,3,6-tetrahydropyridine (MPTP) having selective neurotoxicity shed light to the possible patomechanism of the Parkinson's disease. MPTP induces parkinsonian motor signs in both human and animals [Dexter, A. et al., Ann. Neurol., 35, 38–44 (1994)]. MPTP treatment results in a loss of dopaminergic neurons in the substantia nigra pars compacta, as well. Lewy body-like eosinophilic inclusions appear in the damaged neurons and the activity of mitochondrial complex I is also diminished in these cells. These alterations are characteristic for oxidative stress [Shapira, A., Adv. Neurol., 69, 161–165 (1996)]. The biologically active metabolite of MPTP is MPP [1-methyl-4-phenylpyridinium]. MPP inhibits directly complex I in mitochondria leading to increased generation of superoxide anion. […] After centrifugation (14000×g, 10 min, 4° C.), 20 μl of supernatant were injected onto a reverse phase catecholamine column (ESA, Bedford) and dopamine content was evaluated. […]

T1 sequence (P27008 whole entry): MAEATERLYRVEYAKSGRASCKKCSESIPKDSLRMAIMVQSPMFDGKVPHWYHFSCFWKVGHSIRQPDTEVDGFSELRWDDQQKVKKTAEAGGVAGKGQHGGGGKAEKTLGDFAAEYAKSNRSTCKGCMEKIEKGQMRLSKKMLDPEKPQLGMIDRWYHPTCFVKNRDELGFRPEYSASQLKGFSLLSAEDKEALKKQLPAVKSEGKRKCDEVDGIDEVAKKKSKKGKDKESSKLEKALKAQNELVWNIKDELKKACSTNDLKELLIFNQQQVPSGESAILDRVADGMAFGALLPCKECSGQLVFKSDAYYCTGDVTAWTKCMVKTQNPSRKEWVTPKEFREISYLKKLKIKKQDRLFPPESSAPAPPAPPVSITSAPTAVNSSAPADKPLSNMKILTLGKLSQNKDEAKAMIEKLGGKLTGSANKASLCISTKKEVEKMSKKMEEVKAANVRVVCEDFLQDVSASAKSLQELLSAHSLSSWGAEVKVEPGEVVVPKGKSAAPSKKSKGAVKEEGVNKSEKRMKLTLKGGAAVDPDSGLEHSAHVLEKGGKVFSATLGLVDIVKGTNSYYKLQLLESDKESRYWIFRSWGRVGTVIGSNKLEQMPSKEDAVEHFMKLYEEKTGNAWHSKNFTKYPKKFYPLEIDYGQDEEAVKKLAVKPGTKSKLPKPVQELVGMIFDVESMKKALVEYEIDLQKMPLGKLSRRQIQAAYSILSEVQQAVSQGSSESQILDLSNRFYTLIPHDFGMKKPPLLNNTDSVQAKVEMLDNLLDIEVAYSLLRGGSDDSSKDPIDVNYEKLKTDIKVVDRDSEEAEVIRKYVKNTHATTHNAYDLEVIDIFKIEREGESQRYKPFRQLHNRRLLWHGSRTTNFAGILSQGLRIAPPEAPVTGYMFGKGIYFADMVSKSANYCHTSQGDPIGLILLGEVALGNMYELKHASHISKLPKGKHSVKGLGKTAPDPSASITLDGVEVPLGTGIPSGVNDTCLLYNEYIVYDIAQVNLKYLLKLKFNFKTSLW

As to `ON=C(C=Cc1ccccc1)NCC(O)CN1CCOCC1` (centres unmarked) [Example 13, N-(3-Morpholino-2-hydroxypropyl)cinnamic acid amidoxime dihydrogen maleate], the IC50 in data set [1] is 65.5 µM.

In the case of `O=[N+]([O-])c1cccc2cn[nH]c12` [7-nitroindazole], in the data set on conscious rabbits (experimental hypercholesterolaemia), the “effect on the insulin resistance ameliorating effect of the compounds of the invention” value is “blocked the insulin resistance ameliorating effect”. Further, the “insulin resistance produced by the substance itself” value with conscious rabbits (normal animals, 5 mg/kg 7-nitroindazole) is “produced insulin resistance”.

Regarding `O=c1onc(C=Cc2ccccc2)n1CC(O)CN1CCCCCC1` (centres unmarked) [Example 4, 3-Styryl-4-(3-hexamethyleneimino-2-hydroxypropyl)-Δ^2-1,2,4-oxadiazolin-5-one hydrochloride], in data set [1], the IC50 was 40.8 µM.

As to `O=c1onc(C=Cc2ccccc2)n1CC(O)CN1CCCCC1` (centres unmarked) [Example 2, 3-Styryl-4-(3-piperidino-2-hydroxipropyl)-Δ^2-1,2,4-oxadiazolin-5-one hydrochloride], the IC50 in data set [1] is 27.3 µM. Besides, the “longer survival relative to the control group after reperfusion” value in the data set with male SPRD rats worked out at 50%.

`CC(C)(C)NCC(O)Cn1c(C=Cc2ccccc2)noc1=O` (centres unmarked) [Example 6, 3-Styryl-4-[3-(tert.-butylamino)-2-hydroxypropyl]-Δ^2-1,2,4-oxadiazolin-5-one hydrochloride]: the IC50 in data set [1] is 53.6 µM.

On to `O=c1onc(C=Cc2ccccc2)n1CC(O)CN1CCOCC1` (centres unmarked) [Example 5, 3-Styryl-4-(3-morpholino-2-hydroxypropyl)-Δ^2-1,2,4-oxadiazolin-5-one hydrochloride], for which, in data set [1], the IC50 is 39.2 µM.

Take `C(=Cc1ccccc1)C1=NOC(CN2CCCCC2)CN1` (centres unmarked) [Example 16, 3-Styryl-6-(piperidinomethyl)-4H-5,6-dihydro-1,2,4-oxadiazine]: in data set [1], the IC50 was 63.1 µM.

`O=c1onc(C=Cc2ccccc2)n1CC(O)CN1CCc2ccccc2C1` (centres unmarked) [Example 8, 3-Styryl-4-[3-(1,2,3,4-tetrahydro-2-isoquinolyl)-2-hydroxypropyl]-Δ^2-1,2,4-oxadiazolin-5-one hydrochloride]: in data set [1], the IC50 is 31.8 µM.

On to `O=c1onc(C=Cc2ccccc2)n1CC(O)CN1CCCC1` (centres unmarked) [Example 3, 3-Styryl-4-(3-pyrrolidino-2-hydroxypropyl)-Δ^2-1,2,4-oxadiazolin-5-one-hydrochloride], for which the IC50 in data set [1] is 25.4 µM.

As for `CN1CCN(CC(O)CNC(C=Cc2ccccc2)=NO)CC1` (centres unmarked) [Example 14, N-[3-(1-Methyl-4-piperazinyl)-2-hydroxypropyl]cinnamic acid amidoxime trihydrogen maleate], the IC50 in data set [1] is 28.3 µM.

Consider `Cc1cccc(C)c1NCC(O)Cn1c(C=Cc2ccccc2)noc1=O` (centres unmarked) [Example 9, 3-Styryl-4-[3-(2,6-dimethylanilino)-2-hydroxypropyl]-Δ^2-1,2,4-oxadiazolin-5-one hydrochloride], for which the IC50 in data set [1] was 19.2 µM.

For the compound `ON=C(C=Cc1ccccc1)NCC(O)CN1CCCCC1` (centres unmarked) [Example 12, N-(3-Piperidino-2-hydroxypropyl)cinnamic acid amidoxime], in data set [1], the IC50 is 59.3 µM. In the data set on male NMRI mice, the hepatoprotective effect entry was “very favourable hepatoprotective effect”.

Take `CN1CC=C(c2ccccc2)CC1` [MPTP, 1-methyl-4-phenyl-1,2,3,6-tetrahydropyridine]: the “decrease in striatal dopamine content” value in the data set on C57BI mice worked out at 80%.

With `COc1ccc(C=Cc2noc(=O)n2CC(O)CN2CCCCC2)cc1OC` (centres unmarked) [Example 10, 3-(3,4-Dimethoxystyryl)-4-(3-piperidino-2-hydroxypropyl)-Δ^2-1,2,4-oxadiazolin-5-one hydrochloride], the IC50 in data set [1] was 71.9 µM.
